# Values quoted from earlier work as cited in US7550155B2, “Aqueous pharmaceutical compositions of 2,6-diisopropylphenol (propofol) and their uses” (Transform Pharmaceuticals Inc., priority 2002, dated 2009).
# Conditions: 10% aqueous solution of P188
compound,measurement,value
"CC(C)c1cccc(C(C)C)c1O [propofol, 2,6-diisopropylphenol]",Propofol held in aqueous P188 solution,0.8%
